Assay results published in ChEMBL document CHEMBL1806489, “Synthesis and biological evaluation of novel F-18 labeled pyrazolo[1,5-a]pyrimidine derivatives: potential PET imaging agents for tumor detection” (Bioorg Med Chem Lett, 2011).

Key:
Brain [1] = assay: Biodistribution in mouse S180 cells xenografted Kunming mouse brain at 370 kBq/0.1 mL, iv after 120 mins by gamma counting; format: ADME, organism-based, CCRF S-180; conditions: in vivo, 2 h
Mus musculus [2] = assay: Biodistribution in mouse S180 cells xenografted Kunming mouse excretory organ at 3.7 MBq, iv after 30 mins by PET imaging analysis; format: ADME, organism-based, CCRF S-180; conditions: in vivo, 0.5 h
Mus musculus [3] = assay: Biodistribution in mouse S180 cells xenografted Kunming mouse left forelimb of tumor at 3.7 MBq, iv after 30 mins by PET imaging analysis; format: ADME, organism-based, Neoplasm, CCRF S-180; conditions: in vivo, 0.5 h
Mus musculus [4] = assay: Biodistribution in mouse S180 cells xenografted Kunming mouse right forelimb of tumor at 3.7 MBq, iv after 30 mins by PET imaging analysis; format: ADME, organism-based, Neoplasm, CCRF S-180; conditions: in vivo, 0.5 h
CCRF S-180 [5] = assay: Cellular uptake in mouse S180 cells after 30 mins; format: ADME, cell-based; conditions: ccrf s-180, 0.5 h
CCRF S-180 [6] = assay: Cellular uptake in mouse S180 cells after 60 mins; format: ADME, cell-based; conditions: ccrf s-180, 1 h
Liver = assay: Biodistribution in mouse S180 cells xenografted Kunming mouse liver at 370 kBq/0.1 mL, iv after 5 mins by gamma counting; format: ADME, organism-based, CCRF S-180; conditions: in vivo
Lung [7] = assay: Biodistribution in mouse S180 cells xenografted Kunming mouse lung at 370 kBq/0.1 mL, iv after 5 mins by gamma counting; format: ADME, organism-based, CCRF S-180; conditions: in vivo
Kidney [8] = assay: Biodistribution in mouse S180 cells xenografted Kunming mouse kidney at 370 kBq/0.1 mL, iv after 5 mins by gamma counting; format: ADME, organism-based, CCRF S-180; conditions: in vivo
Muscle tissue [9] = assay: Biodistribution in mouse S180 cells xenografted Kunming mouse muscle at 370 kBq/0.1 mL, iv after 5 mins by gamma counting; format: ADME, organism-based, CCRF S-180; conditions: in vivo
Heart [10] = assay: Biodistribution in mouse S180 cells xenografted Kunming mouse heart at 370 kBq/0.1 mL, iv after 15 mins by gamma counting; format: ADME, organism-based, CCRF S-180; conditions: in vivo, 0.25 h
Blood [11] = assay: Biodistribution in mouse S180 cells xenografted Kunming mouse blood at 370 kBq/0.1 mL, iv after 15 mins by gamma counting; format: ADME, organism-based, CCRF S-180; conditions: in vivo, 0.25 h
Nucleic Acid [12] = assay: Ratio of drug level in tumor to muscle in mouse S180 cells xenografted Kunming mouse at 370 kBq/0.1 mL, iv after 15 mins by gamma counting; format: ADME, organism-based, CCRF S-180; conditions: in vivo, 0.25 h
Nucleic Acid [13] = assay: Ratio of drug level in tumor to blood in mouse S180 cells xenografted Kunming mouse at 370 kBq/0.1 mL, iv after 15 mins by gamma counting; format: ADME, organism-based, CCRF S-180; conditions: tumour, 0.25 h
Heart [14] = assay: Biodistribution in mouse S180 cells xenografted Kunming mouse heart at 370 kBq/0.1 mL, iv after 30 mins by gamma counting; format: ADME, organism-based, CCRF S-180; conditions: in vivo, 0.5 h
Lung [15] = assay: Biodistribution in mouse S180 cells xenografted Kunming mouse lung at 370 kBq/0.1 mL, iv after 30 mins by gamma counting; format: ADME, organism-based, CCRF S-180; conditions: in vivo, 0.5 h
Kidney [16] = assay: Biodistribution in mouse S180 cells xenografted Kunming mouse kidney at 370 kBq/0.1 mL, iv after 30 mins by gamma counting; format: ADME, organism-based, CCRF S-180; conditions: in vivo, 0.5 h
Muscle tissue [17] = assay: Biodistribution in mouse S180 cells xenografted Kunming mouse muscle at 370 kBq/0.1 mL, iv after 30 mins by gamma counting; format: ADME, organism-based, CCRF S-180; conditions: in vivo, 0.5 h
Nucleic Acid [18] = assay: Ratio of drug level in tumor to brain in mouse S180 cells xenografted Kunming mouse at 370 kBq/0.1 mL, iv after 30 mins by gamma counting; format: ADME, organism-based, CCRF S-180; conditions: in vivo, 0.5 h
Nucleic Acid [19] = assay: Ratio of drug level in tumor to blood in mouse S180 cells xenografted Kunming mouse at 370 kBq/0.1 mL, iv after 30 mins by gamma counting; format: ADME, organism-based, CCRF S-180; conditions: tumour, 0.5 h
Kidney [20] = assay: Biodistribution in mouse S180 cells xenografted Kunming mouse kidney at 370 kBq/0.1 mL, iv after 60 mins by gamma counting; format: ADME, organism-based, CCRF S-180; conditions: in vivo, 1 h
Brain [21] = assay: Biodistribution in mouse S180 cells xenografted Kunming mouse brain at 370 kBq/0.1 mL, iv after 60 mins by gamma counting; format: ADME, organism-based, CCRF S-180; conditions: in vivo, 1 h
Blood [22] = assay: Biodistribution in mouse S180 cells xenografted Kunming mouse blood at 370 kBq/0.1 mL, iv after 60 mins by gamma counting; format: ADME, organism-based, CCRF S-180; conditions: in vivo, 1 h
Nucleic Acid [23] = assay: Ratio of drug level in tumor to muscle in mouse S180 cells xenografted Kunming mouse at 370 kBq/0.1 mL, iv after 60 mins by gamma counting; format: ADME, organism-based, CCRF S-180; conditions: in vivo, 1 h
Spleen = assay: Biodistribution in mouse S180 cells xenografted Kunming mouse spleen at 370 kBq/0.1 mL, iv after 120 mins by gamma counting; format: ADME, organism-based, CCRF S-180; conditions: in vivo, 2 h

Compound	Drug uptake (Brain [1]) [% ID/g]	Drug uptake (CCRF S-180 [6]) [%]	Drug uptake (Liver) [% ID/g]	Drug uptake (Lung [7]) [% ID/g]	Drug uptake (Kidney [8]) [% ID/g]	Drug uptake (Muscle tissue [9]) [% ID/g]	Drug uptake (Heart [10]) [% ID/g]	Drug uptake (Blood [11]) [% ID/g]	Ratio (Nucleic Acid [12])	Ratio (Nucleic Acid [13])	Drug uptake (Heart [14]) [% ID/g]	Drug uptake (Lung [15]) [% ID/g]	Drug uptake (Kidney [16]) [% ID/g]	Drug uptake (Muscle tissue [17]) [% ID/g]	Ratio (Nucleic Acid [18])	Ratio (Nucleic Acid [19])	Drug uptake (Kidney [20]) [% ID/g]	Drug uptake (Brain [21]) [% ID/g]	Drug uptake (Blood [22]) [% ID/g]	Ratio (Nucleic Acid [23])	further results
Cc1cc(NCC[18F])n2ncc(C#N)c2n1	1.79	9	6.99	6.61	7.93	3.99	3.57	4.65	1.14	0.94	4.06	3.77	3.28	3.05	2.23	1.23	2.58	1.93	3.63	1.28	Drug uptake (Mus musculus [2]): Active; Drug uptake (Mus musculus [3]): Active; Drug uptake (Mus musculus [4]): Not Active; Drug uptake (CCRF S-180 [5]): Active; Drug uptake (Spleen): 2.15 % ID/g
Cc1cc(NCCNC(=O)c2ccc([N+](=O)[O-])cc2[18F])n2ncc(C#N)c2n1	0.04	9	17.9	5.6	17.7	3.82	2.78	2.5	0.96	0.8	1.16	1.19	5.63	0.89	10.44	0.88	1.83	0.08	0.45	1.57	Drug uptake (Spleen): 0.14 % ID/g
